One series concerns the target T1, plasma DPIV activity (Rattus norvegicus, UniProt P14740).
T1 construct: from tissue; host or cells: plasma of male Wistar rats
Nature of the series: Plasma DPIV inhibiting activity after intravasal and oral administration to Wistar rats. In kind it is in vivo. The following applies: 100 mg/kg b.w. vs. placebo, oral and intra-vasal administration. The method, then: Male Wistar rats (Shoe: Wist(Sho)) with a body weight ranging between 250 and 350 g were purchased from Tierzucht Schönwalde (Schönwalde, Germany). Animals were single-caged under conventional conditions with controlled temperature (22±2° C.) on a 12/12 hours light/dark cycle (light on at 06:00 AM). Standard pelleted chow (ssniff® Soest, Germany) and tap water acidified with HCl were allowed ad libitum. After ≧one week of adaptation at the housing conditions, catheters were implanted into the carotid artery of Wistar rats under general anaesthesia (i.p. injection of 0.25 ml/kg b.w. Rompun®[2%], BayerVital, Germany and 0.5 ml/kg b.w. Ketamin 10, Atarost GmbH & Co., Twistringen, Germany). The animals were allowed to recover for one week. The catheters were flushed with heparin-saline (100 IU/ml) three times per week. In case of catheter dysfunction, a second catheter was inserted into the contra-lateral carotid artery of the respective rat. After one week of recovery from surgery, this animal was reintegrated into the study. In case of dysfunction of the second catheter, the animal was withdrawn from the study. […]
Statistical evaluations and graphics were performed with PRISM® 3.02 (GraphPad Software, Inc.). All parameters were analysed in a descriptive manner including mean and SD.

The nature of series [1]: In vivo inactivation (degradation) after oral administration to Wistar rats, LC/MS. To be noted: LC/MS of plasma. How it is done: Glutaminyl thiazolidine was administered to Wistar rats orally. After application of placebo or glutaminyl thiazolidine, arterial blood samples were taken at 2.5, 5, 7.5, 10, 15, 20, 40, 60 and 120 min from the carotid catheter of the conscious unrestrained rats to determine the formation of degradation products of glutaminyl thiazolidine. For analysis, simple solid phase extraction procedure on C18 cartridges was used to isolate the compounds of interest from the plasma. The extracts were analysed using reversed-phase liquid chromatography on Lichrospher 60 RP Select B column hyphenated with tandem mass spectrometry operating in the APCI positive mode. An internal standard method was used for quantification.

Series [2] relates to diabetic Zucker (fa/fa) rats. The series can be described thus: Glutaminyl thiazolidine and Metformin alone or in combination, glycemic control in diabetic Zucker (fa/fa) rats. In kind it is in vivo, rat. The method, then: Ten or eleven weeks old male Zucker (fa/fa) rats were purchased from Charles River (Sulzfeld, Germany). Animals were kept under standardized semi-barrier conditions with controlled temperature (22±2° C.) on a 12/12 hours light/dark cycle (light on at 06:00 a.m.). Standard pelleted chow (ssniff®, Soest, Germany) and tap water acidified with HCl were allowed ad libitum. At the age of 12 weeks the animals (N=42) were divided in random order into six experimental groups to be medicated. Definition of the Experimental Groups for the Medications (GT=glutaminyl thiazolidine):
The single or combined doses per kg b.w. were solved in 5 mL dist. water for oral administration.
The study was started with the 12 to 13 weeks old Zucker (fa/fa) rats. At the beginning of the study an OGTT was performed (2 g glucose/kg body weight (b.w.); administration volume: 5 mL/kg of a 40% solution; B. Braun Melsungen, Melsungen, Germany) after a 16 h fast. […] Dosing was performed at t=5 min before OGTT by gavage.
Blood samples were taken from tail veins to measure blood glucose and serum insulin at −15, ±0 min, 15, 30, 60, 90, 120 and 180 min (the latter time without insulin samples) with respect to time of glucose administration.
After the first OGTT the animals in the groups were dosed twice daily with the respective drugs at 08:00 AM and at 04:00 PM, respectively:
During the two weeks of medication morning blood glucose was measured before the 08:00 AM medication at Monday, Wednesday and Friday.
Food intake was determined every day during the time of medication.
All the animals were weighted three times per week at 7:30 AM.
A second OGTT was performed after two weeks of medication (Day 15). The food was withdrawn at 04:00 PM the day before (16 h fast). The OGTT was performed with pre-medication at −5 min and oral glucose loading at ±0 min. Blood samples were taken from tail veins to measure blood glucose, and serum insuline at −15, ±0 min, 15, 30, 60, 90, 120 and 180 min (the latter time without insulin samples).
Glycated hemoglobin was measured before (Day −7) and on Day 18.
Glucose-For determination of glucose 20 μL blood were collected at −15, ±0 min (before OGTT) and 15, 30, 60, 90, 120 and 180 min post OGTT.
Insulin-Insulin concentrations were assayed by the antibody RIA method (Linco Research, Inc. St. Charles, Mo., USA).
Glycated haemoglobin-Percentage of glycated hemoglobin A (HbA1c) was estimated with the “DCA 2000R Hämoglobin A1c-Reagenz kit”(Bayer Vital GmbH, Fernwald, Germany).
The body weight was measured using a platform balance (Scaltec, Heiligenstadt, Germany).
Mixed venous blood samples from the tails were collected into 20 μL glass capillaries, which were placed in standard tubes filled with 1 ml solution for hemolysis (blood glucose measurement) and in sample tubes for serum insulin (50 μL blood).
Raw data of glucose analysis were provided by IDK to probiodrug in Excel format as soon as possible. Data for each drug and each parameter (glucose, insulin) were summarized by descriptive statistics (mean, SEM). […] Changes from baseline were calculated and summarized by descriptive statistic.

T1 sequence (P14740 38-767 limits assumed): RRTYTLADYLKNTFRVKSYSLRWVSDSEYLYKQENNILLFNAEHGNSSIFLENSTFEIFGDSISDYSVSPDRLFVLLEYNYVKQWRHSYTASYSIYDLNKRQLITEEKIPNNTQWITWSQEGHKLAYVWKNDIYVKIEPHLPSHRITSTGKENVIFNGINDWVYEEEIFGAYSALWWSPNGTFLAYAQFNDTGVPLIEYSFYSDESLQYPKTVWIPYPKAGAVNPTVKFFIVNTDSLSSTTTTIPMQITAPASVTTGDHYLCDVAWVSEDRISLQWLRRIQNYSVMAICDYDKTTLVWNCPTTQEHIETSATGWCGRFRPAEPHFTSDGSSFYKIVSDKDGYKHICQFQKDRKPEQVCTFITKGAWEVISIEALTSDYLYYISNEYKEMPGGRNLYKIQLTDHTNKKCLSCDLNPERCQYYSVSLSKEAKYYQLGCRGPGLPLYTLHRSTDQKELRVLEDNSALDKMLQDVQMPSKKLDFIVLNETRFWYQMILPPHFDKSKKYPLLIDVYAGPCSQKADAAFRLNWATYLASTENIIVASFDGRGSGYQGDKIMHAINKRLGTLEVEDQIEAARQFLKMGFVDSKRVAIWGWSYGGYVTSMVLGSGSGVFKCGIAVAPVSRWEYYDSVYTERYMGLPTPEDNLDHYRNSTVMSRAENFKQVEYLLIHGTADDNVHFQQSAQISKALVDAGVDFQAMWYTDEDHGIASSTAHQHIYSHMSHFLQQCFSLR

Take `NC(=O)CC[C@H](N)C(=O)N1CCCC1` [glutaminyl pyrrolidine]: the “plasma DPIV activity” value at plasma DPIV activity is given as “inhibited plasma DPIV activity”. The “degradation product in vivo” value in series [1] is on record as “pyroglutaminyl pyrrolidine”.

In the case of `NC(=O)CC[C@H](N)C(=O)N1CCSC1` [glutaminyl thiazolidine], the “reactive and absolute G-AUC” value in series [2] (GT 60 mg/kg b.w. and/or Metformin 125 mg/kg b.w. (Met-low), b.i.d. oral, p<0.05 vs. Control) is “significantly reduced”. In addition, in series [2] (GT 60 mg/kg b.w. and/or Metformin 125 mg/kg b.w. (Met-low), b.i.d. oral, vs. Control), the “glucose tolerance curve in the OGTT” value is reported as “significantly improved glucose tolerance curves”. Besides, in series [2] (subchronic (18 days) b.i.d. administration, diabetic fatty Zucker rats (fa/fa)), the glucose tolerance result is listed as “improved glucose tolerance”. Further, at plasma DPIV activity, the “plasma DPIV activity” value is “inhibited plasma DPIV activity”. Also, the “degradation product in vivo” value in series [1] was “pyroglutaminyl thiazolidine”.

For the origin of these results see patent US20060287251A1, “Combination therapy for glycaemic control” (priority 2003, published 2006).
